Consider 24 compounds from patent publication US10584128B2, “Bicyclic dihydropyrimidine-carboxamide derivatives as Rho-Kinase inhibitors” (CHIESI FARMACEUTICI S.p.A., priority 2016, dated 2020).

pKi: −log10 of the molar value. Bounds are passed on as bounds.

For one assay, the target named is Rho kinase 2 (Homo sapiens, UniProt O75116). In words: In vitro Rho kinase inhibitory activity assay (ADP-Glo kit, Myelin Basic Protein substrate). Type of assay: biochemical. As to conditions: 10 μM ATP, 25° C., read-out: ROCK2 inhibitory activity (Ki, range of activity). An outline of the steps:
(§1)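 Each kinase (ROCK1 or ROCK2) sat with compound for 30 min at 25 °C before 10 μM ATP started a 1 h reaction on 2.5 μM myelin basic protein (Tris pH 7.5, MgCl2, BSA, DTT, 1% DMSO). ADP formed was read by ADP-Glo luminescence. Dose-response IC50s were converted to Ki by Cheng-Prusoff.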
Background: ADP-Glo turns the ADP formed in a reaction into a luminescent signal.

The next assay has as its target Rho kinase 1 (Homo sapiens, UniProt Q13464). The description is as above. Type of assay: biochemical. The following applies: 10 μM ATP, 25° C., read-out: ROCK1 inhibitory activity (Ki, range of activity). An outline of the steps: as §1

Chain of Rho kinase 1 (Q13464 whole entry): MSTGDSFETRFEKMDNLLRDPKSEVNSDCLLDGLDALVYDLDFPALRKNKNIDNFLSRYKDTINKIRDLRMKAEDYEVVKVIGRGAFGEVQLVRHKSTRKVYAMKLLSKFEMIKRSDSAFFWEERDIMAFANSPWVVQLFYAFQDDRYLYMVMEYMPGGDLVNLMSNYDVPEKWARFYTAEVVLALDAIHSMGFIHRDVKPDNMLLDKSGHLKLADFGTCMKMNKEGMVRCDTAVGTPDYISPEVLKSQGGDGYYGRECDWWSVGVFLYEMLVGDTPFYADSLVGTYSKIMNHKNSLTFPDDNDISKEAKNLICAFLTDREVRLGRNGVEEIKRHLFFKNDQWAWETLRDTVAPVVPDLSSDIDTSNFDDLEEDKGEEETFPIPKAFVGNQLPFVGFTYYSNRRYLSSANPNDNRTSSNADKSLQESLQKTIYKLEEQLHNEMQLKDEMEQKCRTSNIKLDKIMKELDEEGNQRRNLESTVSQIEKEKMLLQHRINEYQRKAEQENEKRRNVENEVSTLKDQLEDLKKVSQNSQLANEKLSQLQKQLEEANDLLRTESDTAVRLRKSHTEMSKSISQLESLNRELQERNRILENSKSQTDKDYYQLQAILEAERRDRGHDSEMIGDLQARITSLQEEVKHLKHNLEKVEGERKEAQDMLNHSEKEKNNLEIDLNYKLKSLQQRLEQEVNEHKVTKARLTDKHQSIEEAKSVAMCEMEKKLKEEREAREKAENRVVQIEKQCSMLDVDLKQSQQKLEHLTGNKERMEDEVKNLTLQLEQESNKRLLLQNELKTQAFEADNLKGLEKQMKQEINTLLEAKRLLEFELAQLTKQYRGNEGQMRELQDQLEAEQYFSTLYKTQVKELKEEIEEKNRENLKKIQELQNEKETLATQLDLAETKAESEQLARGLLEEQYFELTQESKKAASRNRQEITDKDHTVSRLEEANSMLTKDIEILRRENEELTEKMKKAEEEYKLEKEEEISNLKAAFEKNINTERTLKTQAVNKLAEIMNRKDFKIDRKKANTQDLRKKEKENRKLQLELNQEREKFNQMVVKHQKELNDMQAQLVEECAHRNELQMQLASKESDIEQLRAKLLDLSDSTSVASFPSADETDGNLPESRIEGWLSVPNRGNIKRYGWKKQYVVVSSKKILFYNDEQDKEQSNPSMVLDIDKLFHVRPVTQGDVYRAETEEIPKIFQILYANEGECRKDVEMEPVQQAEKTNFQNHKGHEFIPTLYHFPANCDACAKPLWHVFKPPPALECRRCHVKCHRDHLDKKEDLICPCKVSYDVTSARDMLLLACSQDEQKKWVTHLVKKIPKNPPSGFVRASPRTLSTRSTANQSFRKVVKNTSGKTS
Chain of Rho kinase 2 (O75116 whole entry): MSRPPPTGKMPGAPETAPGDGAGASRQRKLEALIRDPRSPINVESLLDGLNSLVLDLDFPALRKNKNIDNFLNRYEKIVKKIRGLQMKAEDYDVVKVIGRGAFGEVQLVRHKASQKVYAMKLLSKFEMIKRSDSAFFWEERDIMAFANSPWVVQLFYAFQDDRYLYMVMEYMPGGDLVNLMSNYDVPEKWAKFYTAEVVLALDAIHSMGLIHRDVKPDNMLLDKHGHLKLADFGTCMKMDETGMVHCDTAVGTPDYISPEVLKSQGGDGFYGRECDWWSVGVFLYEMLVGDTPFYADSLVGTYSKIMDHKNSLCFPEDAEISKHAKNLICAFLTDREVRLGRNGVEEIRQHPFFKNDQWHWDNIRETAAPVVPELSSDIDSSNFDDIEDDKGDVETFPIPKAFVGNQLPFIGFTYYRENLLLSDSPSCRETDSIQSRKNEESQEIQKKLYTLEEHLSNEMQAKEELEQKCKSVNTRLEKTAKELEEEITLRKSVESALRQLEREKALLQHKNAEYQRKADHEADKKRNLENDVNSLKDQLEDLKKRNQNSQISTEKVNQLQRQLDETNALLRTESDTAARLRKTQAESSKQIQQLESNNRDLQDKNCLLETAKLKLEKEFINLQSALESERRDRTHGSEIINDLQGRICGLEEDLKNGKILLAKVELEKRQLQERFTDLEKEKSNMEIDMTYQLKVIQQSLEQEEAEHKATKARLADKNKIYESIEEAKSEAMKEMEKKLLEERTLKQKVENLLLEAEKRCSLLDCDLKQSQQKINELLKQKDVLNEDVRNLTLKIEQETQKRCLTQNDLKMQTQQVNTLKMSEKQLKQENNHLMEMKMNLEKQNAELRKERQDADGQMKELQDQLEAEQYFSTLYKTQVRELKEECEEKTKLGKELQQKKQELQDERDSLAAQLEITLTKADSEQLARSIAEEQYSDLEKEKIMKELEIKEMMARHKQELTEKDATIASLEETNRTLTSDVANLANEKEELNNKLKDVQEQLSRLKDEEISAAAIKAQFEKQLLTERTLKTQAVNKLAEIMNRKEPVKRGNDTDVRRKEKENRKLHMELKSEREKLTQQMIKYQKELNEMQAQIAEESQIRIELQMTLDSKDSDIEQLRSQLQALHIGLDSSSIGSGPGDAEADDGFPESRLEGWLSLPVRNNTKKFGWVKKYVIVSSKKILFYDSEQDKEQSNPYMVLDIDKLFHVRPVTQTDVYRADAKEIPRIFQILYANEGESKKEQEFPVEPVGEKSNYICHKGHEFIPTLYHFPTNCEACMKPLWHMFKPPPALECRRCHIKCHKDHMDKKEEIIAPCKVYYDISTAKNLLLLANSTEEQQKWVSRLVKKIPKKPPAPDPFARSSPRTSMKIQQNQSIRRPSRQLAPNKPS

One may read the pKi as the Ki on a negative log10 scale, so that one unit is a factor of ten. In the case of `CC1=C(C(=O)Nc2ccc3[nH]ncc3c2)C(c2ccc(F)cc2)n2nnnc2N1` (single isomer, unassigned) [Example 23A, 7-(4-fluorophenyl)-N-(1H-indazol-5-yl)-5-methyl-4,7-dihydrotetrazolo[1,5-a]pyrimidine-6-carboxamide], the pKi at Rho kinase 2 and at Rho kinase 1 was more than 7.30 in each case.

As for `CCOC(=O)c1cc2n(n1)C(c1ccc(C(F)(F)F)c(F)c1)C(C(=O)Nc1ccn3cnnc3c1)=C(C)N2` (stereo not drawn) [Example 15, ethyl 6-([1,2,4]triazolo[4,3-a]pyridin-7-ylcarbamoyl)-7-(3-fluoro-4-(trifluoromethyl)phenyl)-5-methyl-4,7-dihydropyrazolo[1,5-a]pyrimidine-2-carboxylate], the pKi at Rho kinase 2 and on Rho kinase 1 was less than 6.30 in each case.

As for `CC1=C(C(=O)Nc2cc3cn[nH]c3cc2F)C(c2ccc(C(F)(F)F)c(F)c2)n2nnnc2N1` (single isomer, unassigned) [Example 40B, N-(6-fluoro-1H-indazol-5-yl)-7-(3-fluoro-4-(trifluoromethyl)phenyl)-5-methyl-4,7-dihydrotetrazolo[1,5-a]pyrimidine-6-carboxamide], the pKi on Rho kinase 2 and on Rho kinase 1 was 6.30 to 7.30 throughout.

Turning to `CC1=C(C(=O)Nc2ccc3cnccc3c2)C(C2COc3ccccc3O2)n2nc(CO)cc2N1` (single isomer, unassigned) [Example 72D, 7-(2,3-dihydrobenzo[b][1,4]dioxin-2-yl)-2-(hydroxymethyl)-N-(isoquinolin-6-yl)-5-methyl-4,7-dihydropyrazolo[1,5-a]pyrimidine-6-carboxamide], the negative logarithm of the Ki (pKi) on Rho kinase 2 and on Rho kinase 1 was 6.30 to 7.30 in each case.

For `COCC1CN(Cc2cc3n(n2)C(c2ccc(C(F)(F)F)c(F)c2)C(C(=O)Nc2ccc4cnccc4c2)=C(C)N3)C1` (stereo not drawn) [Example 101, 7-(3-fluoro-4-(trifluoromethyl)phenyl)-N-(isoquinolin-6-yl)-2-((3-(methoxymethyl)azetidin-1-yl)methyl)-5-methyl-4,7-dihydropyrazolo[1,5-a]pyrimidine-6-carboxamide], the pKi on Rho kinase 2 and on Rho kinase 1 was more than 7.30 throughout.

With `CC1=C(C(=O)Nc2ccc3cnccc3c2)C(c2ccc(C(F)(F)F)c(F)c2)n2nc(CN)cc2N1` (stereo not drawn) [Example 112, 2-(aminomethyl)-7-(3-fluoro-4-(trifluoromethyl)phenyl)-N-(isoquinolin-6-yl)-5-methyl-4,7-dihydropyrazolo[1,5-a]pyrimidine-6-carboxamide], the pKi at Rho kinase 2 and at Rho kinase 1 was more than 7.30 each time.

Take `CCOC(=O)c1cnn2c1NC(C)=C(C(=O)Nc1ccc3[nH]ncc3c1)C2c1ccc(F)cc1` (stereo not drawn) [Example 17, ethyl 6-((1H-indazol-5-yl)carbamoyl)-7-(4-fluorophenyl)-5-methyl-4,7-dihydropyrazolo[1,5-a]pyrimidine-3-carboxylate]: the negative logarithm of the Ki (pKi) on Rho kinase 2 and at Rho kinase 1 was less than 6.30 each time.

For the compound `CC1=C(C(=O)Nc2ccc3[nH]ncc3c2)C(c2ccc(F)cc2)n2nc(C)cc2N1` (stereo not drawn) [Example 28, 7-(4-fluorophenyl)-N-(1H-indazol-5-yl)-2,5-dimethyl-4,7-dihydropyrazolo[1,5-a]pyrimidine-6-carboxamide], the pKi on Rho kinase 2 and on Rho kinase 1 was more than 7.30 in each case.

Consider `CCOC(=O)c1cc2n(n1)C(c1ccc(C(F)(F)F)cc1)C(C(=O)Nc1ccc3[nH]ncc3c1)=C(C)N2` (stereo not drawn) [Example 2, ethyl 6-((1H-indazol-5-yl)carbamoyl)-5-methyl-7-(4-(trifluoromethyl)phenyl)-4,7-dihydropyrazolo[1,5-a]pyrimidine-2-carboxylate], for which the pKi at Rho kinase 2 and on Rho kinase 1 was more than 7.30 each time.

On to `CC1=C(C(=O)Nc2ccc3[nH]ncc3c2)C(c2ccc(C(F)(F)F)cc2)n2nc(CO)cc2N1` (single isomer, unassigned) [Example 69B, 2-(hydroxymethyl)-N-(1H-indazol-5-yl)-5-methyl-7-(4-(trifluoromethyl)phenyl)-4,7-dihydropyrazolo[1,5-a]pyrimidine-6-carboxamide], for which the negative logarithm of the Ki (pKi) at Rho kinase 2 and on Rho kinase 1 was more than 7.30 each time.

On to `COc1ccccc1-c1cc2n(n1)C(c1ccc(F)cc1)C(C(=O)Nc1ccc3[nH]ncc3c1)=C(C)N2` (stereo not drawn) [Example 21, 7-(4-fluorophenyl)-N-(1H-indazol-5-yl)-2-(2-methoxyphenyl)-5-methyl-4,7-dihydropyrazolo[1,5-a]pyrimidine-6-carboxamide], for which the pKi at Rho kinase 2 and at Rho kinase 1 was 6.30 to 7.30 each time.

As for `CC1=C(C(=O)Nc2ccc3cnccc3c2)C(c2ccc(C)c(F)c2)n2nc(CN(C)C)cc2N1` (single isomer, unassigned) [Example 110A, 2-((dimethylamino)methyl)-7-(3-fluoro-4-methylphenyl)-N-(isoquinolin-6-yl)-5-methyl-4,7-dihydropyrazolo[1,5-a]pyrimidine-6-carboxamide], the pKi on Rho kinase 2 and on Rho kinase 1 was 6.30 to 7.30 throughout.

`CC1=C(C(=O)Nc2ccc3cnccc3c2)C(c2ccc(C(F)(F)F)c(F)c2)n2nc(NC(=O)CCN3CCCCC3)cc2N1` (stereo not drawn) [Example 131, 7-(3-Fluoro-4-(trifluoromethyl)phenyl)-N-(isoquinolin-6-yl)-5-methyl-2-(3-(piperidin-1-yl)propanamido)-4,7-dihydropyrazolo[1,5-a]pyrimidine-6-carboxamide]: the pKi at Rho kinase 2 and at Rho kinase 1 was more than 7.30 throughout.

Regarding `CCOC(=O)c1cc2n(n1)C(c1ccc(O)c(F)c1)C(C(=O)Nc1ccc3cnccc3c1)=C(C)N2` (stereo not drawn) [Example 10, ethyl 7-(3-fluoro-4-hydroxyphenyl)-6-(isoquinolin-6-ylcarbamoyl)-5-methyl-4,7-dihydropyrazolo[1,5-a]pyrimidine-2-carboxylate], the pKi at Rho kinase 2 and at Rho kinase 1 was more than 7.30 in each case.

In the case of `CC1=C(C(=O)Nc2ccc3cnccc3c2)C(c2ccc(Cl)c(F)c2)n2nc(CO)cc2N1` (stereo not drawn) [Example 57, 7-(4-chloro-3-fluorophenyl)-2-(hydroxymethyl)-N-(isoquinolin-6-yl)-5-methyl-4,7-dihydropyrazolo[1,5-a]pyrimidine-6-carboxamide], the pKi at Rho kinase 2 and at Rho kinase 1 was more than 7.30 throughout.

For `CC1=C(C(=O)Nc2ccc3cnccc3c2)C(c2ccc(Cl)cc2)n2nc(CO)cc2N1` (single isomer, unassigned) [Example 62B, 7-(4-chlorophenyl)-2-(hydroxymethyl)-N-(isoquinolin-6-yl)-5-methyl-4,7-dihydropyrazolo[1,5-a]pyrimidine-6-carboxamide], the negative-log Ki (pKi) on Rho kinase 2 and at Rho kinase 1 was 6.30 to 7.30 throughout.

In the case of `CC1=C(C(=O)Nc2ccc3cnccc3c2)C(c2cnc(-c3ccccc3)s2)n2nc(CO)cc2N1` (stereo not drawn) [Example 52, 2-(hydroxymethyl)-N-(isoquinolin-6-yl)-5-methyl-7-(2-phenylthiazol-5-yl)-4,7-dihydropyrazolo[1,5-a]pyrimidine-6-carboxamide], the negative logarithm of the Ki (pKi) at Rho kinase 2 and at Rho kinase 1 was more than 7.30 in each case.

Take `CC1=C(C(=O)Nc2ccc3cnccc3c2)C(c2ccc(C(F)(F)F)c(F)c2)n2nc(C(=O)NCCN(C)C)cc2N1` (stereo not drawn) [Example 79, N2-(2-(dimethylamino)ethyl)-7-(3-fluoro-4-(trifluoromethyl)phenyl)-N6-(isoquinolin-6-yl)-5-methyl-4,7-dihydropyrazolo[1,5-a]pyrimidine-2,6-dicarboxamide]: the pKi at Rho kinase 2 and on Rho kinase 1 was more than 7.30 throughout.

In the case of `CC1=C(C(=O)Nc2ccc3cnccc3c2)C(c2ccc(C(F)(F)F)c(F)c2)n2nc(NC(=O)c3ccc(CN(C)C)cc3)cc2N1` (single isomer, unassigned) [Example 137A, 2-(4-((Dimethylamino)methyl)benzamido)-7-(3-fluoro-4-(trifluoromethyl)-phenyl)-N-(isoquinolin-6-yl)-5-methyl-4,7-dihydropyrazolo[1,5-a]pyrimidine-6-carboxamide], the pKi on Rho kinase 2 and at Rho kinase 1 was less than 6.30 throughout.

Take `CCOC(=O)c1cc2n(n1)C(C1CCCCC1)C(C(=O)Nc1ccc3[nH]ncc3c1)=C(C)N2` (stereo not drawn) [Example 14, ethyl 6-((1H-indazol-5-yl)carbamoyl)-7-cyclohexyl-5-methyl-4,7-dihydropyrazolo[1,5-a]pyrimidine-2-carboxylate]: the figures for the pKi on Rho kinase 2 and at Rho kinase 1 were more than 7.30 and 6.30 to 7.30, respectively.

`CC1=C(C(=O)Nc2ccc3cnccc3c2)C(c2ccc(Cl)cc2)n2nc(CO)cc2N1` (single isomer, unassigned) [Example 62A, 7-(4-chlorophenyl)-2-(hydroxymethyl)-N-(isoquinolin-6-yl)-5-methyl-4,7-dihydropyrazolo[1,5-a]pyrimidine-6-carboxamide]: the pKi on Rho kinase 2 and at Rho kinase 1 was more than 7.30 throughout.

Consider `CC1=C(C(=O)Nc2ccc3cnccc3c2)C(c2ccc(C(F)(F)F)c(F)c2)n2nc(CO)cc2N1` (single isomer, unassigned) [Example 65A, 7-(3-fluoro-4-(trifluoromethyl)phenyl)-2-(hydroxymethyl)-N-(isoquinolin-6-yl)-5-methyl-4,7-dihydropyrazolo[1,5-a]pyrimidine-6-carboxamide], for which the negative-log Ki (pKi) on Rho kinase 2 and at Rho kinase 1 was more than 7.30 throughout.

On to `CCOC(=O)c1cc2n(n1)C(C1CCOCC1)C(C(=O)Nc1ccc3[nH]ncc3c1)=C(C)N2` (stereo not drawn) [Example 11, ethyl 6-((1H-indazol-5-yl)carbamoyl)-5-methyl-7-(tetrahydro-2H-pyran-4-yl)-4,7-dihydropyrazolo[1,5-a]pyrimidine-2-carboxylate], for which the pKi at Rho kinase 2 and at Rho kinase 1 was 6.30 to 7.30 in each case.

On to `COC1CCN(Cc2cc3n(n2)C(c2ccc(C(F)(F)F)c(F)c2)C(C(=O)Nc2ccc4cnccc4c2)=C(C)N3)CC1` (stereo not drawn) [Example 99, 7-(3-fluoro-4-(trifluoromethyl)phenyl)-N-(isoquinolin-6-yl)-2-((4-methoxypiperidin-1-yl)methyl)-5-methyl-4,7-dihydropyrazolo[1,5-a]pyrimidine-6-carboxamide], for which the negative logarithm of the Ki (pKi) on Rho kinase 2 and on Rho kinase 1 was more than 7.30 in each case.
